In patent publication US10975056B2 (GlaxoSmithKline Intellectual Property Development Limited, priority 2016, dated 2021):
Read-outs that look alike come from different tables or passages of the source.

How the values were obtained:
DNMT1 = DNMT1 (Homo sapiens, UniProt P26358); experiment: DNMT1 biochemical activity, breaklight assay and/or SPA assay
[1] = test system: erythroid progenitor cells (EPCs); experiment: Fetal hemoglobin (HbF) ELISA in day 7 erythroid progenitor cells; assay type: cell-based, human; settings: Homo sapiens, Erythroid progenitor cell, HbF ELISA, day 7 EPCs, 5 days; read-out: EPC ELISA (pEC50 category) (converted);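 further: for fetal hemoglobin induction normalized to vehicle-treated cells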
Procedure, shortened: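 Read-out was OD450 from an HRP/TMB sandwich ELISA on lysates, normalized to DMSO-only control wells. Thawed day 7 EPCs from human marrow CD34+ cells had been treated for 5 days at 37° C with Compound A, 22 concentrations […].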

[2] = binned activity in either the breaklight or the SPA assay
[3] = breaklight assay and/or SPA assay, repeated experimental runs
[4] = binned activity in either the breaklight or the SPA assay, read-out: DNMT1 BioChemical (pIC50 category) (converted)

DNMT1, sequence (P26358 whole entry, looked up): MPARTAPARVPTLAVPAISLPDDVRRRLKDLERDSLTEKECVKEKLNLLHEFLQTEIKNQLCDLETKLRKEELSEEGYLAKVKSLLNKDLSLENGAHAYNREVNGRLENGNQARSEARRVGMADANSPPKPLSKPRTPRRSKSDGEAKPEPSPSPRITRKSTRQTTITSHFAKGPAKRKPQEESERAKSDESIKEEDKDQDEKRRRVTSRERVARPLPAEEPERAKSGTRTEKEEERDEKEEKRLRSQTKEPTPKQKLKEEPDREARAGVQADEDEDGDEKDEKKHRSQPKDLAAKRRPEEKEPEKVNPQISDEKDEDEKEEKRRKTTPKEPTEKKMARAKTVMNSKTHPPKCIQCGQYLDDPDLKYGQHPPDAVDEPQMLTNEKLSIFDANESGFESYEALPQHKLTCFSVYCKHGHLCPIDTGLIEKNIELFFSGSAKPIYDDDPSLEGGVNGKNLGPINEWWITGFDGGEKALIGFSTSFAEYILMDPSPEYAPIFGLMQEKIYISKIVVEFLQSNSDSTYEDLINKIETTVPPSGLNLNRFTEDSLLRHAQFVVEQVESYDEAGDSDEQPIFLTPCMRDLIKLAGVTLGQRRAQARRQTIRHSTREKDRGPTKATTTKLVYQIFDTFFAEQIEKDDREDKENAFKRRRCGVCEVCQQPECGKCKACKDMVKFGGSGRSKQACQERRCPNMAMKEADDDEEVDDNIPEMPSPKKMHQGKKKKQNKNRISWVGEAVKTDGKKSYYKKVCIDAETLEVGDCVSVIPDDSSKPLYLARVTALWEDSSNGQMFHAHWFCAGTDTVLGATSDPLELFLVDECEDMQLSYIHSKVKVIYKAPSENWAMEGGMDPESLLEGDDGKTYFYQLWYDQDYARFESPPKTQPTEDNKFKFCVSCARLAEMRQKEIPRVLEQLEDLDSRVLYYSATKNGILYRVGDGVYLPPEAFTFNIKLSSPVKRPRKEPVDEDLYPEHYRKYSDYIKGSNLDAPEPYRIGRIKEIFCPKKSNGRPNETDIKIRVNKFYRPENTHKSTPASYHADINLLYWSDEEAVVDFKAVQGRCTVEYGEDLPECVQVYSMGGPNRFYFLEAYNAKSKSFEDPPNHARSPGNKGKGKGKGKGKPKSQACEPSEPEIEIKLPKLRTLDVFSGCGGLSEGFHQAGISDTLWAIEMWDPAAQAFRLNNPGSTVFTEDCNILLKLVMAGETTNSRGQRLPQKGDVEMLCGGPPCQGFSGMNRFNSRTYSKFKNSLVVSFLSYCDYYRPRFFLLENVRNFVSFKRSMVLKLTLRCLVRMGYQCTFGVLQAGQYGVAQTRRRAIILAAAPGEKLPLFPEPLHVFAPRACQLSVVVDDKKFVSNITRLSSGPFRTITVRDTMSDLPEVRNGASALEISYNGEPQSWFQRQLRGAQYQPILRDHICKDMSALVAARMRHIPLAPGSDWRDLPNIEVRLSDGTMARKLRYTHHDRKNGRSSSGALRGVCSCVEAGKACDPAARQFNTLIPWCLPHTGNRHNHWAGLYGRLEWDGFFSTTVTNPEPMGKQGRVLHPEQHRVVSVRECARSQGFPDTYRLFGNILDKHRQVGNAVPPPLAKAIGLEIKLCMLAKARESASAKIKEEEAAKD

DNMT1 BioChemical (pIC50 category) (DNMT1; [2])	EC50 [1] [nM]	IC50 (DNMT1; breaklight assay and/or SPA assay, repeated experimental runs, read-out: average pIC50 against DNMT1 (converted)) [nM]	IC50 (DNMT1; [4]) [nM]	SMILES	average pIC50 against DNMT1 (DNMT1; [3])
D (Category D: ≥6.5)	< 316			CCc1c(C#N)c(SC(C(N)=O)c2ccccc2)nc(N(C)CC(=O)NCC2(CO)CC2)c1C#N (stereo not drawn) [Example 673, 2-((6-((2-amino-2-oxo-1-phenylethyl)thio)-3,5-dicyano-4-ethylpyridin-2-yl)(methyl)amino)-N-((1-(hydroxymethyl)cyclopropyl)methyl)acetamide]	
D (Category D: ≥6.5)	1000 to 31600	126		CCc1c(C#N)c(SC(C(N)=O)c2ccccc2)nc(N(C)CC(=O)N2C[C@@H](CO)[C@H](O)C2)c1C#N (stereo partly drawn) [Example 649]	> 6.5
	> 31600		316 to 1000	CCc1c(C#N)c(SCc2ccc(NS(C)(=O)=O)nc2)nc(N2CCCN(C)CC2)c1C#N [Example 335, N-(5-(((3,5-dicyano-4-ethyl-6-(4-methyl-1,4-diazepan-1-yl)pyridin-2-yl)thio)methyl)pyridin-2-yl)methanesulfonamide]	
D (Category D: ≥6.5)	< 316			CCc1c(C#N)c(SC(C(N)=O)c2ccccc2)nc(N(C)CCN2CC[C@@H](N(C)C)C2)c1C#N (stereo partly drawn) [Example 516, 2-((3,5-dicyano-6-((2-((R)-3-(dimethylamino)pyrrolidin-1-yl)ethyl)(methyl)amino)-4-ethylpyridin-2-yl)thio)-2-phenylacetamide]	
	316 to 1000		316 to 1000	CCc1c(C#N)c(SC(C(N)=O)c2ccccc2)nc(N2CCN(Cc3ncco3)CC2)c1C#N (stereo not drawn) [Example 176, 2-((3,5-Dicyano-4-ethyl-6-(4-(oxazol-2-ylmethyl)piperazin-1-yl)pyridin-2-yl)thio)-2-phenylacetamide]	
	< 316		< 316	CCc1c(C#N)c(SC(C(N)=O)c2ccc(F)cc2)nc(N2CCC(NCC(C)(C)O)CC2)c1C#N (stereo not drawn) [Example 513, 2-((3,5-dicyano-4-ethyl-6-(4-((2-hydroxy-2-methylpropyl)amino)piperidin-1-yl)pyridin-2-yl)thio)-2-(4-fluorophenyl)acetamide]	
	< 316		< 316	CCc1c(C#N)c(SC(C(N)=O)c2ccccc2)nc(N2CCCC(CN(C)C)C2)c1C#N (stereo not drawn) [Example 565, 2-((3,5-dicyano-6-(3-((dimethylamino)methyl)piperidin-1-yl)-4-ethylpyridin-2-yl)thio)-2-phenylacetamide]	
D (Category D: ≥6.5)	< 316			CCc1c(C#N)c(SC(C(N)=O)c2ccccc2)nc(N2CCC(N(C)CC(C)(C)O)CC2)c1C#N (stereo not drawn) [Example 444, 2-((3,5-dicyano-4-ethyl-6-(4-((2-hydroxy-2-methylpropyl)(methyl)amino)piperidin-1-yl)pyridin-2-yl)thio)-2-phenylacetamide]	
D (Category D: ≥6.5)	< 316			N#Cc1c(SC(C(N)=O)c2ccccc2)nc(N2CCC(N3CCOCC3)CC2)c(C#N)c1C1CC1 (stereo not drawn) [Example 16]	
	1000 to 31600		1000 to 31600	CCc1c(C#N)c(N[C@@H](C(N)=O)c2ccccc2)nc(N2CCCN(CC)CC2)c1C#N [Example 162, (R)-2-((3,5-Dicyano-4-ethyl-6-(4-ethyl-1,4-diazepan-1-yl)pyridin-2-yl)amino)-2-phenylacetamide]	
D (Category D: ≥6.5)	< 316			CCc1c(C#N)c(SCc2ccc(N(C)S(C)(=O)=O)cc2)nc(N2CCC(N)CC2)c1C#N [Example 587, N-(4-(((6-(4-aminopiperidin-1-yl)-3,5-dicyano-4-ethylpyridin-2-yl)thio)methyl)phenyl)-N-methylmethanesulfonamide]	

SMILES	DNMT1 BioChemical (pIC50 category) (DNMT1; [2])	EC50 [1] [nM]	IC50 (DNMT1; breaklight assay and/or SPA assay, repeated experimental runs, read-out: average pIC50 against DNMT1 (converted)) [nM]	IC50 (DNMT1; [4]) [nM]	average pIC50 against DNMT1 (DNMT1; [3])
CCc1c(C#N)c(SC(C(N)=O)c2ccccc2)nc(N2CCC(C3CCNC3)CC2)c1C#N (stereo not drawn) [Example 121, 2-((3,5-Dicyano-4-ethyl-6-(4-(pyrrolidin-3-yl)piperidin-1-yl)pyridin-2-yl)thio)-2-phenylacetamide; 2,2,2-trifluoroacetic acid]	D (Category D: ≥6.5)	316 to 1000			> 6.5
